Assay results from ChEMBL document CHEMBL3875161, “Thiazolidin-4-ones from 4-(methylthio)benzaldehyde and 4-(methylsulfonyl)benzaldehyde: Synthesis, antiglioma activity and cytotoxicity” (Eur J Med Chem, 2016).
Calls of active or inactive are those of the source. No cut-off for these calls is given here.

Legend:
[1] = Cytotoxicity against Wistar rat C6 cells assessed as decrease in cell viability at 100 uM after 72 hrs by MTT assay relative to control; type: functional
Rattus norvegicus [2] = organism: Rattus norvegicus; experiment: Cytotoxicity against Wistar rat primary astrocytes assessed as inhibition of cell viability at 100 uM after 72 hrs by MTT assay; type: toxicity; settings: astrocyte
Rattus norvegicus [3] = organism: Rattus norvegicus; experiment: Cytotoxicity against Wistar rat primary astrocytes assessed as inhibition of cell viability at 250 uM after 72 hrs by MTT assay; type: toxicity; settings: astrocyte
C6 [4] = experiment: Cytotoxicity against Wistar rat C6 cells assessed as inhibition of cell viability at 50 uM after 72 hrs by MTT assay; type: functional, cell-based
[5] = Cytotoxicity against Wistar rat C6 cells assessed as decrease in cell viability at 100 uM after 48 hrs by MTT assay relative to control; type: functional
C6 [6] = experiment: Cytotoxicity against Wistar rat C6 cells assessed as inhibition of cell viability at 50 uM after 48 hrs by MTT assay; type: functional, cell-based
C6 [7] = experiment: Induction of necrosis in Wistar rat C6 cells assessed as lowering of cell density at 50 to 100 uM; type: functional, cell-based
C6 [8] = experiment: Induction of necrosis in Wistar rat C6 cells at 50 to 100 uM after 72 hrs by propidium iodide staining based fluorescence microscopic analysis; type: functional, cell-based
C6 [9] = experiment: Induction of necrosis in Wistar rat C6 cells assessed as change in cell morphology at 50 to 100 uM; type: functional, cell-based
C6 [10] = experiment: Cytotoxicity against Wistar rat C6 cells assessed as inhibition of cell viability at 5 uM after 72 hrs by MTT assay; type: functional, cell-based
C6 [11] = experiment: Cytotoxicity against Wistar rat C6 cells assessed as inhibition of cell viability at 25 uM after 48 hrs by MTT assay; type: functional, cell-based
C6 [12] = experiment: Cytotoxicity against Wistar rat C6 cells assessed as inhibition of cell viability at 25 uM after 72 hrs by MTT assay; type: functional, cell-based

Row | Structure (SMILES) | Activity [1] | Activity (Rattus norvegicus [2]) | Activity (Rattus norvegicus [3]) | Activity [5] | further results
1 | CCN(CC)CCCN1C(=O)CSC1c1ccc(SC)cc1 (stereo not drawn) | 67.5% | Non-Toxic | Toxic |  | 
2 | CSc1ccc(N2C(=O)CSC2c2ccc(S(C)(=O)=O)cc2)cc1 (stereo not drawn) |  | Non-Toxic | Non-Toxic |  | 
3 | CS(=O)(=O)c1ccc(C2SCC(=O)N2CCN2CCCCC2)cc1 (stereo not drawn) |  | Non-Toxic | Non-Toxic |  | 
4 | CCN(CC)CCCN1C(=O)CSC1c1ccc(S(C)(=O)=O)cc1 (stereo not drawn) |  | Non-Toxic | Toxic |  | 
5 | CS(=O)(=O)c1ccc(C2SCC(=O)N2c2ccccn2)cc1 (stereo not drawn) |  | Non-Toxic | Non-Toxic |  | 
6 | CSc1ccc(C2SCC(=O)N2c2ccc3c(c2)OCO3)cc1 (stereo not drawn) | 81.7% | Non-Toxic | Non-Toxic | 61.2% | inhibition (C6 [4]): Active; inhibition (C6 [6]): Active; Activity (C6 [7]): Active; Activity (C6 [8]): Active; Activity (C6 [9]): Active
7 | CSc1ccc(C2SCC(=O)N2Cc2ccccn2)cc1 (stereo not drawn) | 75% | Non-Toxic | Non-Toxic | 48% | inhibition (C6 [10]): Active; Activity (C6 [7]): Active; Activity (C6 [8]): Active; Activity (C6 [9]): Active
8 | Cn1nnc2c(C(N)=O)ncn2c1=O [TEMOZOLOMIDE] | 39.7% |  |  | 42.3% | 
9 | CS(=O)(=O)c1ccc(C2SCC(=O)N2Cc2ccccn2)cc1 (stereo not drawn) | 77% | Non-Toxic | Non-Toxic | 47.2% | inhibition (C6 [11]): Active; Activity (C6 [7]): Active; Activity (C6 [8]): Active; Activity (C6 [9]): Active; inhibition (C6 [12]): Active
10 | CS(=O)(=O)c1ccc(C2SCC(=O)N2c2ccc3c(c2)OCO3)cc1 (stereo not drawn) |  | Non-Toxic | Non-Toxic |  | 
11 | CSc1ccc(C2SCC(=O)N2CCCN2CCCCC2)cc1 (stereo not drawn) | 78% | Non-Toxic | Toxic | 52.2% | inhibition (C6 [10]): Active; Activity (C6 [7]): Active; Activity (C6 [8]): Active; Activity (C6 [9]): Active
12 | CS(=O)(=O)c1ccc(C2SCC(=O)N2CCCN2CCCCC2)cc1 (stereo not drawn) |  | Non-Toxic | Non-Toxic |  | 
13 | CSc1ccc(C2SCC(=O)N2CCN2CCCCC2)cc1 (stereo not drawn) | 61% | Non-Toxic | Toxic |  | 
14 | CSc1ccc(C2SCC(=O)N2c2ccccn2)cc1 (stereo not drawn) |  | Non-Toxic | Non-Toxic |  | 
15 | CSc1ccc(C2SCC(=O)N2c2ccc(SC)cc2)cc1 (stereo not drawn) |  | Non-Toxic | Non-Toxic |  | 
